Source: paper PMC3832595, “Synthesis of a Pseudo-Disaccharide Library and Its Application to the Characterisation of the Heparanase Catalytic Site” (PLoS ONE, 2013)

Biological target: T1, human heparanase (Homo sapiens, UniProt Q9Y251)
T1 construct: purchased Apollo Scientific, Cheshire UK
T1 sequence (Q9Y251 158-543 limits assumed): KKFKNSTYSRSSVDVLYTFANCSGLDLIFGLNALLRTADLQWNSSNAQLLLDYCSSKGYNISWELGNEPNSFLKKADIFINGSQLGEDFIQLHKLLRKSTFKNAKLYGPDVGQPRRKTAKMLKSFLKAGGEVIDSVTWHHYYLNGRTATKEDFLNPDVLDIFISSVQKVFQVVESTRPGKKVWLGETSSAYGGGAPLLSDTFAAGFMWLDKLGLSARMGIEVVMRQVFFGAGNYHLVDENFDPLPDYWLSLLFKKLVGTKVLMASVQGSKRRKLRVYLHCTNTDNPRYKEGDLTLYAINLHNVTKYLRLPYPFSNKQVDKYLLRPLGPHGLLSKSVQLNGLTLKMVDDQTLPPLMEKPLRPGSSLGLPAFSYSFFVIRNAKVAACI
T1 sequence (Q9Y251 36-109 limits assumed): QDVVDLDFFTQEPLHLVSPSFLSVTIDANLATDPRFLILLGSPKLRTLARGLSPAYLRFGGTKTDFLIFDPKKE
Assay: Heparanase inhibition assay (biotinylated heparan sulfate degradation, CBD-FGF binding, avidin-POD detection; modified Genway kit)
Assay type: biochemical
Conditions: recombinant human heparanase; for IC50: mean of three readings ± standard error, read-out: IC50 (n=3) against human heparanase

Structure (SMILES) | IC50 [µM] | Inhibition of heparanase (result in words)
NC1CC(CO)C(OC2OC(CO)C(O)C(O)C2O)CC1O (stereo not shown) [8a] | 1200 ± 300 | –
NC1CC(CO)C(OC2OC(CO)C(O)C(O)C2O)CC1O (stereo not shown) [8b] | 800 ± 200 | –
NC1CC(CO)C(OC2OC(CO)C(O)C(O)C2O)CC1O (stereo not shown) [8c] | > 10000 | no significant activity
NC1CC(CO)C(OC2OC(CO)C(O)C(O)C2O)CC1O (stereo not shown) [8d] | 800 ± 200 | –
CCCCOC1CC(O)C(N)CC1CO (stereo not shown) [compound 11] | > 10000 | no significant inhibition
